Measurements as given in ChEMBL document CHEMBL3885881, “DrugMatrix”.

Species: Rattus norvegicus
Format: toxicity, organism-based, Sprague-Dawley
Conditions: in vivo, po, 24 h, route oral GAVAGE, time 1 day, […]; for ABSOLUTE BASOPHIL / ABSOLUTE EOSINOPHIL / ABSOLUTE LYMPHOCYTE / ABSOLUTE MONOCYTE / BASOPHIL / EOSINOPHIL / ERYTHROCYTE COUNT / HEMATOCRIT / HEMOGLOBIN / LEUKOCYTE COUNT / LYMPHOCYTE / MEAN CORPUSCULAR HEMOGLOBIN / MEAN CORPUSCULAR HEMOGLOBIN CONCENTRATION / MEAN CORPUSCULAR VOLUME / MONOCYTE / NEUTROPHIL / PLATELET COUNT: tissue Blood; for ALANINE AMINOTRANSFERASE / ALBUMIN / ALKALINE PHOSPHATASE / ASPARTATE AMINOTRANSFERASE / BLOOD UREA NITROGEN / CARBON DIOXIDE / CHLORIDE / CHOLESTEROL / CREATINE PHOSPHOKINASE / CREATININE / GLUCOSE / LACTATE DEHYDROGENASE / LIPASE / PHOSPHORUS / POTASSIUM / SODIUM / TOTAL BILIRUBIN / TOTAL PROTEIN / URIC ACID: tissue Plasma
[1] = 0 mg/kg, vehicle control, dose level Control

Description: DrugMatrix - Regimen: Single

Work on `C=CCN` [ALLYLAMINE] yielded an ABSOLUTE BASOPHIL [1] of 46.7 cells/µL, an ABSOLUTE EOSINOPHIL [1] of 130 cells/µL and an ABSOLUTE LYMPHOCYTE [1] of 8720 cells/µL. The ABSOLUTE MONOCYTE [1] was 140 cells/µL, the BASOPHIL [1] was 0.43% and the EOSINOPHIL [1] was 1.33%. For the same compound, the “ERYTHROCYTE COUNT” value [1] was 6.45 x10E6/uL, the HEMATOCRIT [1] was 42.2% and the HEMOGLOBIN [1] was 13.33 G/DL. The “LEUKOCYTE COUNT” value [1] was 10.59 x10E3/uL, the LYMPHOCYTE [1] was 82.13% and the “MEAN CORPUSCULAR HEMOGLOBIN” value [1] was 20.67 pg. The “MEAN CORPUSCULAR HEMOGLOBIN CONCENTRATION” value [1] was 31.6 G/DL, the “MEAN CORPUSCULAR VOLUME” value [1] was 65.4 fL and the MONOCYTE [1] was 1.37%. The NEUTROPHIL [1] was 14.3%, the “PLATELET COUNT” value [1] was 1048.67 x10E3/uL and the “ALANINE AMINOTRANSFERASE” value [1] was 44 u/L. For the same compound, the ALBUMIN [1] was 3.93 G/DL, the “ALKALINE PHOSPHATASE” value [1] was 551.33 u/L and the “ASPARTATE AMINOTRANSFERASE” value [1] was 97 u/L. For the same compound, the “BLOOD UREA NITROGEN” value [1] was 13.5 mg/dL, the “CARBON DIOXIDE” value [1] was 37.33 mmol/L and the CHLORIDE [1] was 102.33 MEQ/L. For the same compound, the CHOLESTEROL [1] was 83 mg/dL, the “CREATINE PHOSPHOKINASE” value [1] was 365.33 u/L and the CREATININE [1] was 0.4 mg/dL. The GLUCOSE [1] was 189 mg/dL, the “LACTATE DEHYDROGENASE” value [1] was 170.33 u/L and the LIPASE [1] was 10.67 u/L. For the same compound, the PHOSPHORUS [1] was 11.53 mg/dL, the POTASSIUM [1] was 5.63 MEQ/L and the SODIUM [1] was 144.33 MEQ/L. For the same compound, the “TOTAL BILIRUBIN” value [1] was 0.4 mg/dL, the “TOTAL PROTEIN” value [1] was 6.27 G/DL and the “URIC ACID” value [1] was 0.87 mg/dL. For the same compound, the ABSOLUTE BASOPHIL (40 mg/kg, dose level Low) was 26.7 cells/µL, the ABSOLUTE EOSINOPHIL (40 mg/kg, dose level Low) was 160 cells/µL and the ABSOLUTE LYMPHOCYTE (40 mg/kg, dose level Low) was 6420 cells/µL. For the same compound, the ABSOLUTE MONOCYTE (40 mg/kg, dose level Low) was 190 cells/µL, the BASOPHIL (40 mg/kg, dose level Low) was 0.3% and the EOSINOPHIL (40 mg/kg, dose level Low) was 1.9%. The “ERYTHROCYTE COUNT” value (40 mg/kg, dose level Low) was 7.01 x10E6/uL, the HEMATOCRIT (40 mg/kg, dose level Low) was 45.2% and the HEMOGLOBIN (40 mg/kg, dose level Low) was 14.3 G/DL. The “LEUKOCYTE COUNT” value (40 mg/kg, dose level Low) was 8.6 x10E3/uL, the LYMPHOCYTE (40 mg/kg, dose level Low) was 74.17% and the “MEAN CORPUSCULAR HEMOGLOBIN” value (40 mg/kg, dose level Low) was 20.43 pg. The “MEAN CORPUSCULAR HEMOGLOBIN CONCENTRATION” value (40 mg/kg, dose level Low) was 31.67 G/DL, the “MEAN CORPUSCULAR VOLUME” value (40 mg/kg, dose level Low) was 64.6 fL and the MONOCYTE (40 mg/kg, dose level Low) was 2.23%. For the same compound, the NEUTROPHIL (40 mg/kg, dose level Low) was 20.97%, the “PLATELET COUNT” value (40 mg/kg, dose level Low) was 1314 x10E3/uL and the “ALANINE AMINOTRANSFERASE” value (40 mg/kg, dose level Low) was 38 u/L. For the same compound, the ALBUMIN (40 mg/kg, dose level Low) was 3.9 G/DL, the “ALKALINE PHOSPHATASE” value (40 mg/kg, dose level Low) was 499 u/L and the “ASPARTATE AMINOTRANSFERASE” value (40 mg/kg, dose level Low) was 72.33 u/L. The “BLOOD UREA NITROGEN” value (40 mg/kg, dose level Low) was 10 mg/dL, the “CARBON DIOXIDE” value (40 mg/kg, dose level Low) was 38.67 mmol/L and the CHLORIDE (40 mg/kg, dose level Low) was 104 MEQ/L. The CHOLESTEROL (40 mg/kg, dose level Low) was 72.67 mg/dL, the “CREATINE PHOSPHOKINASE” value (40 mg/kg, dose level Low) was 242.67 u/L and the CREATININE (40 mg/kg, dose level Low) was 0.47 mg/dL. The GLUCOSE (40 mg/kg, dose level Low) was 171.33 mg/dL, the “LACTATE DEHYDROGENASE” value (40 mg/kg, dose level Low) was 92.33 u/L and the LIPASE (40 mg/kg, dose level Low) was 15.33 u/L. It also gave a PHOSPHORUS (40 mg/kg, dose level Low) of 11.83 mg/dL, a POTASSIUM (40 mg/kg, dose level Low) of 5.73 MEQ/L and an SODIUM (40 mg/kg, dose level Low) of 145 MEQ/L. For the same compound, the “TOTAL BILIRUBIN” value (40 mg/kg, dose level Low) was 0.3 mg/dL, the “TOTAL PROTEIN” value (40 mg/kg, dose level Low) was 6.27 G/DL and the “URIC ACID” value (40 mg/kg, dose level Low) was 1.3 mg/dL.
